# Source: patent publication US8624034B2, “Fluoro-pyridinone derivatives useful as antibacterial agents” (Pfizer Inc., priority 2011, dated 2014)
# Several values for one entry are separate records, joined by “and”; a condition that tells them apart may be missing. Equal values may be shown once.
# Tests used:
# PA:UC12120 = experiment: MIC determination, PA:UC12120 (Table 3); format: cell-based, Pseudomonas aeruginosa; conditions: for MIC: Pseudomonas aeruginosa, UC12120, Table 3, lower of duplicate values
# Experimental: (§1) The in vitro antibacterial activity of compounds described in the Examples was evaluated by minimum inhibitory concentration (MIC) testing according to Clinical and Laboratory Standards Institute (CLSI). See: Clinical and Laboratory Standards Institute. Methods for Dilution Antimicrobial Susceptibility Tests for Bacteria that Grow Aerobically; Approved Standard-Eighth Edition. CLSI document M7-A8 [ISBN 1-56238-689-1]. Clinical and Laboratory Standards Institute, 940 West Valley Road, Suite 1400, Wayne, Pa. 19087-1898 USA, 2006; also Clinical and Laboratory Standards Institute. Performance Standards for Antimicrobial Susceptibility Testing; Twentieth Informational Supplement. CLSI document M100-S20 [ISBN 1-56238-716-2]. Clinical and Laboratory Standards Institute.
# (§2) The MIC determination is a standard laboratory method for evaluating the antibacterial activity of a compound. The MIC represents the lowest drug concentration that inhibits visible growth of bacteria following overnight incubation. […] Typically, the drug concentration range is broken down into 2-fold increments (e.g. 0.06 μg/mL, 0.12 μg/mL. 0.25 μg/mL, 0.50 μg/mL, 1.0 μg/mL, etc.) and the various drug concentrations are all individually incubated overnight with approximately the same number of bacteria. The MIC is then determined by visually inspecting the drug effect at each concentration, and identifying the lowest drug concentration that has inhibited bacterial growth as compared to the drug free control. Typically, bacteria continue to grow at drug concentrations lower than the MIC and don't grow at concentrations at and above the MIC.
# (§3) The MIC values described in Table 2 and 3 below were derived from assays wherein each test compound was evaluated in duplicate. In cases where the duplicate values varied by 0-2-fold, the lower of the two values was reported below. Generally speaking, if the duplicate values varied by more than 2-fold, the assay was considered non-valid and was repeated until the variation between duplicate runs was ≦2-fold. In line with the CLSI guidelines referred to above, both control organisms and reference compounds were utilized in each MIC assay to provide proper quality control. MIC values generated with these control organisms and reference compounds were required to fall within a defined range for the assay to be considered valid and be included herein. Those skilled in the art will recognize that MIC values can and do vary from experiment to experiment. Generally speaking, it should be recognized that MIC values often vary +/−2-fold from experiment to experiment. While a single MIC is reported for each compound and each microorganism, the reader should not conclude that each compound was only tested once. Several of the compounds were subjected to multiple tests. The data reported in Tables 2 and 3 is reflective of the compounds relative activity and different MICs may have been generated on these occasions in line with the guidelines described above.
# In Table 3 below, column 1 corresponds to the Example number, column 2 provides the IUPAC name, columns 3-6 provide in vitro biological data generated in the same manner as in Table 2, columns 7 and 8 provide the retention times and mass spectra generated via LCMS, using the method described below. All data is not currently available for all compounds, as indicated by a blank cell in Table 3.
# [1] = biological target: T1, Pseudomonas aeruginosa LpxC enzyme (Pseudomonas aeruginosa, UniProt P47205); experiment: IC50 assay, LpxC enzyme from P. aeruginosa (PA LpxC enzyme IC50); format: biochemical; conditions: Table 3; LpxC enzyme 0.1 nM, 25° C., 1 hour; read-out: PA:IC50
# T1 construct: made in house; host or cells: E. coli
# T1 sequence (P47205 1-303): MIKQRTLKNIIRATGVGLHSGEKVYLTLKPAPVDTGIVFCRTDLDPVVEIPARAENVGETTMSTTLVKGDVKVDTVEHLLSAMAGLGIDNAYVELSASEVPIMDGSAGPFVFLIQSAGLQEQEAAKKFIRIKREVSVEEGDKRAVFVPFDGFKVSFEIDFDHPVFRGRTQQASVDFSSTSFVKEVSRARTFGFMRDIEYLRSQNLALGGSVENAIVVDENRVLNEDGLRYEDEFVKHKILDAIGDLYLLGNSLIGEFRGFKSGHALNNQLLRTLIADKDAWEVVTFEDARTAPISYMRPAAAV
# Experimental: In order to assess the compounds biological activity, selected in vitro assays were conducted on selected compounds. One of the assays measured the compounds ability to disrupt the synthesis of lipopolysaccharide, LPS, which is a component of the outer membrane of Gram-negative bacteria. Disruption of this synthesis is lethal to the bacteria. The assay determined the compound's ability to inhibit LpxC, which is the first enzyme in the biosynthetic pathway for LPS (measured as IC50). Additionally, MICs (minimal inhibitory concentrations) were determined for several bacteria. The specific protocols are described below:
# A) IC50 Assay, LpxC Enzyme from P. aeruginosa (Labeled as PA LpxC Enzyme IC50):
# At the end of 1 hour, 5 ul of 1 N HCl was added to stop the enzyme reaction, the plates were centrifuged, and then processed with the BioTrove Rapidfire HTMS Mass Spectrometry System. A no-enzyme control was used in calculating the IC50 values from the percent conversion values.
# [2] = test system: Acinetobacter baumannii/haemolyticus, multidrug-resistant clinical isolate (AB-3167); experiment: MIC determination, AB-3167; format: cell-based; conditions: Table 3, lower of duplicate values
# Experimental: as §1, §2, §3
# (§4) The following bacterial strains were used in these MIC determinations:
# 2) Acinetobacter baumannii/haemolyticus: Multidrug-resistant clinical isolate labeled as AB-3167 in Tables 2 and 3;
# [3] = test system: Escherichia coli EC-1: VOGEL, mouse virulent; experiment: MIC determination, EC-1; format: cell-based; conditions: for MIC: Escherichia coli, read-out: EC-1 (MIC), Table 3, lower of duplicate values
# Experimental: as §1, §2, §3, §4
# 3) Escherichia coli EC-1: VOGEL, mouse virulent labeled as EC-1 in Tables 2 and 3;
# [4] = Table 3, lower of duplicate values
SMILES,MIC (PA:UC12120) [µg/mL],IC50 [1],MIC [2] [µg/mL],MIC [3] [µg/mL],PA:UC12120 (MIC) (PA:UC12120; [4]) [µg/mL],"EC-1 (MIC) [3, 4] [µg/mL]"
"CC(CCn1cc(F)c(-c2cnc3ccoc3c2)cc1=O)(C(=O)NO)S(C)(=O)=O (centres unmarked) [Example 72, 4-(5-fluoro-4-furo[3,2-b]pyridin-6-yl-2-oxopyridin-1(2H)-yl)-N-hydroxy-2-methyl-2-(methylsulfonyl)butanamide]",32,0.0348 µM,> 64,64,–,–
"CCOc1ccc(-c2cc(=O)n(CCC(C)(C(=O)NO)S(C)(=O)=O)cc2F)cn1 (centres unmarked) [Example 99, 4-(6-ethoxy-5′-fluoro-2′-oxo-3,4′-bipyridin-1′(2′H)-yl)-N-hydroxy-2-methyl-2-(methylsulfonyl)butanamide]",2,0.0025 µM,> 64,2,–,–
"Cc1ccc2ccc(-c3cc(=O)n(CCC(C)(C(=O)NO)S(C)(=O)=O)cc3F)cc2n1 (centres unmarked) [Example 96, 4-[5-fluoro-4-(2-methylquinolin-7-yl)-2-oxopyridin-1(2H)-yl]-N-hydroxy-2-methyl-2-(methylsulfonyl)butanamide]",32,0.0108 µM,> 64,16,–,–
"CC(CCn1cc(F)c(-c2ccncc2F)cc1=O)(C(=O)NO)S(C)(=O)=O (centres unmarked) [Example 73, 4-(3′,5-difluoro-2-oxo-4,4′-bipyridin-1(2H)-yl)-N-hydroxy-2-methyl-2-(methylsulfonyl)butanamide]",8,0.0083 µM,> 64,> 64,–,–
"COc1cccc(-c2cc(=O)n(CCC(C)(C(=O)NO)S(C)(=O)=O)cc2F)c1 (centres unmarked) [Example 100, 4-[5-fluoro-4-(3-methoxyphenyl)-2-oxopyridin-1(2H)-yl]-N-hydroxy-2-methyl-2-(methylsulfonyl)butanamide]",2,0.0025 µM,> 64,4,–,–
"CN(C)c1ncc(-c2cc(=O)n(CCC(C)(C(=O)NO)S(C)(=O)=O)cc2F)cn1 (centres unmarked) [Example 115, 4-{4-[2-(dimethylamino)pyrimidin-5-yl]-5-fluoro-2-oxopyridin-1(2H)-yl}-N-hydroxy-2-methyl-2-(methylsulfonyl)butanamide]",32,0.0741 µM,> 64,32,–,–
"CC(CCn1cc(F)c(-c2cccc(C#N)c2)cc1=O)(C(=O)NO)S(C)(=O)=O (centres unmarked) [Example 82, 4-[4-(3-cyanophenyl)-5-fluoro-2-oxopyridin-1(2H)-yl]-N-hydroxy-2-methyl-2-(methylsulfonyl)butanamide]",8,0.013 µM,> 64,64,–,–
"Cc1cc(-c2cc(=O)n(CCC(C)(C(=O)NO)S(C)(=O)=O)cc2F)ccc1C#N (centres unmarked) [Example 114, 4-[4-(4-cyano-3-methylphenyl)-5-fluoro-2-oxopyridin-1(2H)-yl]-N-hydroxy-2-methyl-2-(methylsulfonyl)butanamide]",2,0.0013 µM,> 64,4,–,–
"CC(CCn1cc(F)c(-c2ccc(F)cc2)cc1=O)(C(=O)NO)S(C)(=O)=O (centres unmarked) [Example 86, 4-[5-fluoro-4-(4-fluorophenyl)-2-oxopyridin-1(2H)-yl]-N-hydroxy-2-methyl-2-(methylsulfonyl)butanamide]",1,0.0017 µM,> 64,4,–,–
"COc1cc(-c2cc(=O)n(CCC(C)(C(=O)NO)S(C)(=O)=O)cc2F)cnc1OC (centres unmarked) [Example 75, 4-(5′-fluoro-5,6-dimethoxy-2′-oxo-3,4′-bipyridin-1′(2′H)-yl)-N-hydroxy-2-methyl-2-(methylsulfonyl)butanamide]",> 64,0.0454 µM,> 64,> 64,–,–
"COc1cc(-c2cc(=O)n(CCC(C)(C(=O)NO)S(C)(=O)=O)cc2F)ccc1C#N (centres unmarked) [Example 74, 4-[4-(4-cyano-3-methoxyphenyl)-5-fluoro-2-oxopyridin-1(2H)-yl]-N-hydroxy-2-methyl-2-(methylsulfonyl)butanamide]",16,0.0059 µM,> 64,64,–,–
"CC(CCn1cc(F)c(-c2cncc(F)c2)cc1=O)(C(=O)NO)S(C)(=O)=O (centres unmarked) [Example 55, 4-(5,5′-difluoro-2′-oxo-3,4′-bipyridin-1′(2′H)-yl)-N-hydroxy-2-methyl-2-(methylsulfonyl)butanamide]",64,0.0668 µM,> 64,> 64,–,–
"CC(CCn1cc(F)c(-c2ccc3cn[nH]c3c2)cc1=O)(C(=O)NO)S(C)(=O)=O (centres unmarked) [Example 51, 4-[5-fluoro-4-(1H-indazol-6-yl)-2-oxopyridin-1(2H)-yl]-N-hydroxy-2-methyl-2-(methylsulfonyl)butanamide]",> 64,0.0039 µM,> 64,> 64,–,–
"CC(CCn1cc(F)c(-c2ccc(C(F)(F)F)nc2)cc1=O)(C(=O)NO)S(C)(=O)=O (centres unmarked) [Example 113, 4-[5′-fluoro-2′-oxo-6-(trifluoromethyl)-3,4′-bipyridin-1′(2′H)-yl]-N-hydroxy-2-methyl-2-(methylsulfonyl)butanamide]",32,0.0296 µM,> 64,> 64,–,–
"CC(CCn1cc(F)c(-c2ccc(C#N)nc2)cc1=O)(C(=O)NO)S(C)(=O)=O (centres unmarked) [Example 70, 4-(6-cyano-5′-fluoro-2′-oxo-3,4′-bipyridin-1′(2′H)-yl)-N-hydroxy-2-methyl-2-(methylsulfonyl)butanamide]",64,0.0333 µM,> 64,> 64,–,–
"COc1c(F)cc(-c2cc(=O)n(CCC(C)(C(=O)NO)S(C)(=O)=O)cc2F)cc1F (centres unmarked) [Example 62, 4-[4-(3,5-difluoro-4-methoxyphenyl)-5-fluoro-2-oxopyridin-1(2H)-yl]-N-hydroxy-2-methyl-2-(methylsulfonyl)butanamide]",2,0.002 µM and 0.0031 µM,> 64,4,1,8
"COc1cc(C#N)cc(-c2cc(=O)n(CCC(C)(C(=O)NO)S(C)(=O)=O)cc2F)c1 (centres unmarked) [Example 119, 4-[4-(3-cyano-5-methoxyphenyl)-5-fluoro-2-oxopyridin-1(2H)-yl]-N-hydroxy-2-methyl-2-(methylsulfonyl)butanamide]",64,0.0508 µM,> 64,> 64,–,–
"CC(CCn1cc(F)c(-c2cnc(N3CCCC3)nc2)cc1=O)(C(=O)NO)S(C)(=O)=O (centres unmarked) [Example 106, 4-[5-fluoro-2-oxo-4-(2-pyrrolidin-1-ylpyrimidin-5-yl)pyridin-1(2H)-yl]-N-hydroxy-2-methyl-2-(methylsulfonyl)butanamide]",64,0.0568 µM,> 64,32,–,–
